Experiment [1] concerns the target T1, human amylin receptor (calcitonin receptor co-expressed with receptor activity modifying protein, RAMP3) (hAMYR3) (Homo sapiens, UniProt O60896+P30988).
T1 construct: expressed in transfected cells
T1 sequence (P30988 25-474): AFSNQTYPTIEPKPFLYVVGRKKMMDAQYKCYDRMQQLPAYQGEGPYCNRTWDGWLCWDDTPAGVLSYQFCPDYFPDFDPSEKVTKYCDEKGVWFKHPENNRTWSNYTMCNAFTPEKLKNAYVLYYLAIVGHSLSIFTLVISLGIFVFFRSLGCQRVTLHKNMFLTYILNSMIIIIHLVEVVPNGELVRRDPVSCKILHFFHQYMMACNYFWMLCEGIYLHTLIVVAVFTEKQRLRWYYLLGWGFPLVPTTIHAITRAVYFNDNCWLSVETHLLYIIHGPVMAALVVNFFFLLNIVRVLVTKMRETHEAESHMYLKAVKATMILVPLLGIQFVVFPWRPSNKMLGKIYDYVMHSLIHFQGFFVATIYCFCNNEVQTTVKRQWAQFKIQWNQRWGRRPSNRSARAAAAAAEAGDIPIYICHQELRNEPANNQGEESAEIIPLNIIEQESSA
T1 sequence (O60896 24-148 partner): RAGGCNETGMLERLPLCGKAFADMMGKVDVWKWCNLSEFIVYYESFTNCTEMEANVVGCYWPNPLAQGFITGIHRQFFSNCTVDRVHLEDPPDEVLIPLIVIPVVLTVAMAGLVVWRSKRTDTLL
Briefly: cAMP production in 1321N1 cells with stable recombinant expression of human amylin receptor (hAMYR3). The experiment is classed as cell-based. The following applies: for Ratio (selectivity hAMYR vs hCTR, ratio of EC50 values at the two receptors): EC50 hCTR / EC50 hAMYR3; for EC50: cAMP, 1321N1 cells, assay buffer with 0.1% BSA, read-out: EC50 (pM) hAMYR3. The method in brief:
(§1)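 Thawed cells in HBSS/0.1% BSA/25 mM HEPES pH 7.4 with 0.5 mM IBMX were incubated with peptides 30 min at room temperature; cAMP read by HTRF. EC50 from 4-parameter fit of % activation relative to maximal amylin or calcitonin effect.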
In general terms: Changes in cAMP serve as a functional read-out for many G protein-coupled receptors.

For experiment [2], the target named is T2, human calcitonin receptor (hCTR) (Homo sapiens, UniProt P30988).
T2 construct: expressed in transfected cells
T2 sequence (P30988 25-474): T1 sequence (P30988 25-474)
Briefly: cAMP production in 1321N1 cells with stable recombinant expression of human calcitonin receptor (hCTR). The experiment is classed as cell-based. The following applies: cAMP, 1321N1 cells, assay buffer with 0.1% BSA; read-out: EC50 (pM) hCTR. Summed up:
as §1

Each structure is given as a SMILES string. Numbered stars: 1 amine (or outer) side, 2 acyl side, 3 side chain; on linkers, the order of the positions; unused ones are H or OH. Bridge positions count the residues as written; N and C are the ends. Square brackets hold non-standard residues; d marks the D form. Side chains are listed from the residue outwards. Peptide text beside a SMILES is read from it. * marks the point of attachment. C18 diacid = O=C(O)CCCCCCCCCCCCCCCCC(=O)*; γGlu = O=C(O)[C@H](CCC(=O)[*:2])N[*:1]; αMeF = C[C@](N)(Cc1ccccc1)C(=O)O; Aib = CC(C)(N)C(=O)O

A word on the EC50: it is the concentration that produces a half-maximal response. For `CC[C@H](C)[C@H](NC(=O)[C@@H]1CCCN1C(=O)CNC(=O)[C@H](Cc1ccccc1)NC(=O)[C@H](Cc1c[nH]cn1)NC(=O)[C@H](CC(N)=O)NC(=O)[C@H](CO)NC(=O)[C@H](CO)NC(=O)[C@H](Cc1c[nH]cn1)NC(=O)C(C)(C)NC(=O)[C@H](CC(C)C)NC(=O)[C@H](Cc1ccccc1)NC(=O)[C@H](CC(N)=O)NC(=O)[C@H](C)NC(=O)[C@H](CC(C)C)NC(=O)[C@H](CCCNC(=N)N)NC(=O)[C@H](CCC(N)=O)NC(=O)[C@@H](NC(=O)[C@H](C)NC(=O)[C@@H]1CSSC[C@H](NC(=O)[C@H](CCCCN)NC(=O)[C@@H](N)CCCCNC(=O)CC[C@H](NC(=O)CCCCCCCCCCCCCCCCC(=O)O)C(=O)O)C(=O)N[C@@H](CC(N)=O)C(=O)N[C@@H]([C@@H](C)O)C(=O)N[C@@H](C)C(=O)N[C@@H]([C@@H](C)O)C(=O)N1)[C@@H](C)O)C(=O)N[C@@H](CC(C)C)C(=O)N1CCC[C@H]1C(=O)N1CCC[C@H]1C(=O)N[C@H](C(=O)N[C@@H](CC(N)=O)C(=O)N[C@H](C(=O)NCC(=O)N[C@@H](CO)C(=O)N[C@@H](CC(N)=O)C(=O)N[C@H](C(=O)N[C@@H](Cc1ccc(O)cc1)C(N)=O)[C@@H](C)O)C(C)C)[C@@H](C)O` [Peptide 135] (H-K([γGlu-C18 diacid])KCNTATCATQRLANFL[Aib]HSSNHFGPILPPTNVGSNTY-NH2; disulfide 3-8; N-terminus assumed), in experiment [1], the “Ratio (selectivity hAMYR vs hCTR, ratio of EC50 values at the two receptors)” value is reported as 1.2 and the EC50 came to 296 pM. The EC50 in experiment [2] was found to be 345 pM.
The corresponding values for `CC[C@H](C)[C@H](NC(=O)[C@@H]1CCCN1C(=O)CNC(=O)[C@H](Cc1ccccc1)NC(=O)[C@H](CC(N)=O)NC(=O)[C@H](Cc1c[nH]cn1)NC(=O)[C@H](CO)NC(=O)[C@H](CO)NC(=O)[C@H](Cc1c[nH]cn1)NC(=O)C(C)(C)NC(=O)[C@H](CC(C)C)NC(=O)[C@H](Cc1ccccc1)NC(=O)[C@H](CCC(=O)O)NC(=O)[C@H](C)NC(=O)[C@H](CC(C)C)NC(=O)[C@H](CCCNC(=N)N)NC(=O)[C@H](CCC(N)=O)NC(=O)[C@@H](NC(=O)[C@H](C)NC(=O)[C@@H]1CSSC[C@H](NC(=O)[C@H](CCCCN)NC(=O)[C@@H](N)CCCCNC(=O)CC[C@H](NC(=O)CCCCCCCCCCCCCCCCC(=O)O)C(=O)O)C(=O)N[C@@H](CC(N)=O)C(=O)N[C@@H]([C@@H](C)O)C(=O)N[C@@H](C)C(=O)N[C@@H]([C@@H](C)O)C(=O)N1)[C@@H](C)O)C(=O)N[C@@H](CC(C)C)C(=O)N1CCC[C@H]1C(=O)N1CCC[C@H]1C(=O)N[C@H](C(=O)N[C@@H](CC(N)=O)C(=O)N[C@H](C(=O)NCC(=O)N[C@@H](CO)C(=O)N[C@@H](CC(N)=O)C(=O)N[C@H](C(=O)N[C@@H](Cc1ccc(O)cc1)C(N)=O)[C@@H](C)O)C(C)C)[C@@H](C)O` [Peptide 130] (H-K([γGlu-C18 diacid])KCNTATCATQRLAEFL[Aib]HSSHNFGPILPPTNVGSNTY-NH2; disulfide 3-8; N-terminus assumed) are 15, 446 pM and 6690 pM.
As to `CC[C@H](C)[C@H](NC(=O)[C@@H]1CCCN1C(=O)CNC(=O)[C@H](Cc1ccccc1)NC(=O)[C@H](CC(N)=O)NC(=O)C(C)(C)NC(=O)[C@H](CO)NC(=O)[C@H](CO)NC(=O)[C@H](Cc1c[nH]cn1)NC(=O)[C@@H](NC(=O)[C@H](CC(C)C)NC(=O)[C@H](Cc1ccccc1)NC(=O)[C@H](CC(N)=O)NC(=O)[C@H](C)NC(=O)[C@H](CC(C)C)NC(=O)[C@H](CCCNC(=N)N)NC(=O)[C@H](CCC(N)=O)NC(=O)[C@@H](NC(=O)[C@H](C)NC(=O)[C@@H]1CSSC[C@H](NC(=O)[C@@H](N)CCCCNC(=O)CC[C@H](NC(=O)CCCCCCCCCCCCCCCCC(=O)O)C(=O)O)C(=O)N[C@@H](CC(N)=O)C(=O)N[C@@H]([C@@H](C)O)C(=O)N[C@@H](C)C(=O)N[C@@H]([C@@H](C)O)C(=O)N1)[C@@H](C)O)C(C)C)C(=O)N[C@@H](CC(C)C)C(=O)N1CCC[C@H]1C(=O)N1CCC[C@H]1C(=O)N[C@H](C(=O)N[C@@H](CCCNC(=N)N)C(=O)N[C@H](C(=O)NCC(=O)N[C@@H](CO)C(=O)N[C@@H](CC(N)=O)C(=O)N[C@H](C(=O)N[C@@H](Cc1ccc(O)cc1)C(N)=O)[C@@H](C)O)C(C)C)[C@@H](C)O` [Peptide 63, K(γE-C18diacid)[CNTATC]ATQRLANFLVHSS(Aib)NFGPILPPTRVGSNTY-amide] (H-K([γGlu-C18 diacid])CNTATCATQRLANFLVHSS[Aib]NFGPILPPTRVGSNTY-NH2; disulfide 2-7; N-terminus assumed), in experiment [1], the “Ratio (selectivity hAMYR vs hCTR, ratio of EC50 values at the two receptors)” value came out at 5 and the half-maximal effective concentration (EC50) was determined as 76 pM. In experiment [2], the EC50 turned out to be 375 pM.
Consider `CC[C@H](C)[C@H](NC(=O)[C@@H]1CCCN1C(=O)CNC(=O)[C@](C)(Cc1ccccc1)NC(=O)[C@H](CC(N)=O)NC(=O)[C@H](CC(N)=O)NC(=O)[C@H](CO)NC(=O)[C@H](CO)NC(=O)[C@H](Cc1c[nH]cn1)NC(=O)[C@@H](NC(=O)[C@H](CC(C)C)NC(=O)[C@H](Cc1ccccc1)NC(=O)[C@H](CC(N)=O)NC(=O)[C@H](C)NC(=O)[C@H](CC(C)C)NC(=O)[C@H](CCCNC(=N)N)NC(=O)[C@H](CCC(N)=O)NC(=O)[C@@H](NC(=O)[C@H](C)NC(=O)[C@@H]1CSSC[C@H](NC(=O)[C@H](CCCCN)NC(=O)[C@@H](N)CCCCNC(=O)CC[C@H](NC(=O)CCCCCCCCCCCCCCCCC(=O)O)C(=O)O)C(=O)N[C@@H](CC(N)=O)C(=O)N[C@@H]([C@@H](C)O)C(=O)N[C@@H](C)C(=O)N[C@@H]([C@@H](C)O)C(=O)N1)[C@@H](C)O)C(C)C)C(=O)N[C@@H](CC(C)C)C(=O)N1CCC[C@H]1C(=O)N1CCC[C@H]1C(=O)N[C@H](C(=O)N[C@@H](CC(N)=O)C(=O)N[C@H](C(=O)NCC(=O)N[C@@H](CO)C(=O)N[C@@H](CC(N)=O)C(=O)N[C@H](C(=O)N[C@@H](Cc1ccc(O)cc1)C(N)=O)[C@@H](C)O)C(C)C)[C@@H](C)O` [Peptide 14, K(γE-C18diacid)K[CNTATC]ATQRLANFLVHSSNN(αMePhe)GPILPPTNVGSNTY-amide] (H-K([γGlu-C18 diacid])KCNTATCATQRLANFLVHSSNN[αMeF]GPILPPTNVGSNTY-NH2; disulfide 3-8; N-terminus assumed), for which, in experiment [1], the “Ratio (selectivity hAMYR vs hCTR, ratio of EC50 values at the two receptors)” value was 6 and the EC50 was 220 pM. In addition, in experiment [2], the EC50 stood at 1350 pM.
As to `CC[C@H](C)[C@H](NC(=O)[C@@H]1CCCN1C(=O)CNC(=O)[C@H](Cc1ccccc1)NC(=O)[C@H](CC(N)=O)NC(=O)C(C)(C)NC(=O)[C@H](CO)NC(=O)[C@H](CO)NC(=O)[C@H](Cc1c[nH]cn1)NC(=O)[C@@H](NC(=O)[C@H](CC(C)C)NC(=O)[C@H](Cc1ccccc1)NC(=O)[C@H](CC(N)=O)NC(=O)[C@H](C)NC(=O)[C@H](CC(C)C)NC(=O)[C@H](CCCNC(=N)N)NC(=O)[C@H](CCC(N)=O)NC(=O)[C@@H](NC(=O)[C@H](C)NC(=O)[C@@H]1CSSC[C@H](NC(=O)[C@@H](N)CCCCNC(=O)CC[C@H](NC(=O)CCCCCCCCCCCCCCCCC(=O)O)C(=O)O)C(=O)N[C@@H](CC(N)=O)C(=O)N[C@@H]([C@@H](C)O)C(=O)N[C@@H](C)C(=O)N[C@@H]([C@@H](C)O)C(=O)N1)[C@@H](C)O)C(C)C)C(=O)N[C@@H](CC(C)C)C(=O)N1CCC[C@@H]1C(=O)N1CCC[C@H]1C(=O)N[C@H](C(=O)N[C@@H](CC(N)=O)C(=O)N[C@H](C(=O)NCC(=O)N[C@@H](CO)C(=O)N[C@@H](CC(N)=O)C(=O)N[C@H](C(=O)N[C@@H](Cc1ccc(O)cc1)C(N)=O)[C@@H](C)O)C(C)C)[C@@H](C)O` [Peptide 60, K(γE-C18diacid)[CNTATC]ATQRLANFLVHSS(Aib)NFGPIL(dP)PTNVGSNTY-amide] (H-K([γGlu-C18 diacid])CNTATCATQRLANFLVHSS[Aib]NFGPIL[dP]PTNVGSNTY-NH2; disulfide 2-7; N-terminus assumed), the “Ratio (selectivity hAMYR vs hCTR, ratio of EC50 values at the two receptors)” value in experiment [1] stood at 11. Also, the EC50 in experiment [1] was determined as 96 pM; in experiment [2] it was 1030 pM.

The record behind these values is patent US20240067693A1, “POLYPEPTIDES AND USES THEREOF” (MEDIMMUNE LIMITED, priority 2020, published 2024).
